Legend:
mice [1] = assay: mouse tail suspension test (TST); format: in vivo; settings: i.p., peptide 90 min, desipramine and fluoxetine (20 mg/kg) 30 min prior to test, 5 min trial
Description: (§1) In these tests experimental animals are exposed to inescapable aversive situations (hanging by the tail, being into the water) and in response show alternate periods of agitation and immobility reflecting “attempts to escape” and ‘behavioural resignation” respectively.
(§2) The details of the experimental protocols used are as follows: mice were injected i.p. with vehicle, different doses of the peptide TAT-DEF-Elk-1, of a scrambled peptide (serving as control), of the MEK inhibitor SL327, or with the reference antidepressants fluoxetine (20 mg/kg) or desipramine (20 mg/kg), at appropriate time points before the test trial.
(§3) In the TST, each mouse was tested in an individual cubicle while suspended from a tail hanger with adhesive tape wrapped around its tail (1.5-2 cm from tip) 80 cm above the floor. The trial was conducted for 5 min, during which the duration of immobility was measured automatically (BIOSEB, France). For the FST, mice were placed in clear plastic cylinders (diameter 10 cm; height 25 cm) filled with water at 6 cm height (22-25° C.) for 6 min. A blinded observer scored the duration of immobility manually during the last 4 min of the 6-min test.

mice [2] = assay: mouse forced swimming test (FST); format: in vivo; settings: i.p., peptide 90 min, desipramine (20 mg/kg) 30 min prior to test, last 4 min of 6-min test
Description: as §1, §2, §3

mice [3] = assay: social defeat stress (SDS) test; format: in vivo, mouse; settings: peptide 1 mg/kg; for SDS-induced social avoidance (time spend interacting, TSI): defeated mice, treated 15 or 21 days
Excerpt: (A) Data represent means+/−SE of time spend interacting (TSI) with the cage, in the absence (non-hatched bars) or presence (hatched bars) of the target. When target is present, control mice engage in active social behaviour, seen as an increase of TSI (panel a), while vehicle-treated defeated mice (panel b; white bars) show lower TSI, indicating social avoidance.
In the social defeat stress test (SDS), mice were exposed repeatedly (2 week) to aggressive mice; controls were gently handled. Subsequently, the aggressors were removed. Mice were treated with vehicle or TAT-DEF-Elk1 (1 mg/kg) for 15 or 21 days, and then tested for SDS-induced social avoidance. The test box contained a perforated plastic cage that was empty for the first test session and that held a neutral mouse (target) for the second test session.

mice [4] = assay: unpredictable chronic mild stress paradigm (UCMS); format: in vivo, mouse; settings: for UCMS-induced immobility in the TST / sucrose preference (% of sugar of total consumption): end of 3-week UCMS, peptide 1 mg/kg or fluoxetine 20 mg/kg once daily
Excerpt: We have also assessed the effects of the TAT-DEF-Elk1 peptide in the unpredictable chronic mild stress paradigm ([…] is used as a pertinent model of depression with aetiological validity. In UCMS protocols animals are subjected for a long period to different non-anticipated stressors. Chronic exposure to stress results to a syndrome in mice that reproduces symptoms of depression, including increased resignation, anxiety-like behavior, decreased consumption of palatable food, and physiological changes. Chronic administration of compounds with antidepressant activity reverses these changes. The protocol that we have used consists of three weeks of UCMS, during which mice were subjected to various stressors according to a 'random' schedule. Body weight and coat state were assessed weekly, as markers of the progression of the UCMS-evoked syndrome. At the end of the 3 week period the emotional state of the mice was tested in behavioral tests of emotionality and of depression-like behaviors (FIG. 3A). Experimental groups of mice were as follows: (i) non-stressed mice: these were group housed and were handled and maintained under standard laboratory conditions (Group 1; FIG. 3B), (ii) stressed mice: these were maintained under standard laboratory conditions but were isolated in small individual cages. During the three week protocol they were exposed to three mild stressors per day. Stressed-mice were treated either with vehicle (Group 2; FIG. 3B), with the peptide (1 mg/kg; once daily), or with the reference antidepressant fluoxetine (20 mg/kg; once daily) (Group 3; FIG. 3B). Treatment with vehicle or compounds started at the beginning of the UCMS and lasted throughout the three week period. At the end of the UCMS paradigm, mice were tested for depressive-like responses, such as passivity and resignation measured as increased immobility in the tail suspension test and anhedonia measured as the preference to sucrose.

Elk1 = assay: tail suspension-induced Elk1 phosphorylation in medial prefrontal cortex (immunochemistry); format: in vivo, mouse; settings: 2 mg/kg, 1 h30 before 10 min TST; perfused 20 min after start
Description: (§4) In the first experiment, TAT-DEF-Elk-1 peptide (2 mg/kg) or vehicle were administrated 1 h30 before a 10 min tail suspension trial (TST). Mice were perfused 20 min after starting the TST test and phosphorylation of ERK and Elk1 was assessed with immunochemistry.

ERK = assay: tail suspension-induced ERK phosphorylation (immunochemistry); format: in vivo, mouse; settings: 2 mg/kg, 1 h30 before 10 min TST; perfused 20 min after start
Description: as §4

plasma corticosterone = plasma corticosterone after 30 min restraint stress (RIA); format: in vivo, C57BL/6J mice
Description: Data represent means+/−SE of plasma corticosterone in banal conditions (non-stressed, light grey bars) and immediately after a 30-min restraint stress (dark grey bars); vehicle or the TAT-DEF-Elk1 peptide were administered […] before the beginning of stress; *p<0.05 as compared to non-stressed; #p<0.05 as compared to vehicle-treated.
In the second experiment C57BL/6J mice (10 weeks old) were injected with TAT-DEF-Elk1 peptide or vehicle; 1 h30 after the injection the mice were subjected to a 30 min restraint stress i.e. mice were confined individually in a 50 ml Falcon tube in which a hole was made at the top for the mice to breathe. Mice were decapitated directly after restraint, blood was collected in 2 ml eppendorfs containing EDTA at 4° C. Samples were centrifuged for 15 min at 760 g, plasma was collected and corticosterone assessed using the Corticosterone Double Antibody 125-I RIA kit (MP BIOMEDICAL).

mice [5] = settings: described in the literature; cited from earlier work
[6] = stressed mice, peptide 1 mg/kg once daily for three weeks

Compound | immobility in the TST (mice [1]) | immobility in the FST (mice [2]) | SDS-induced social avoidance (time spend interacting, TSI) (mice [3]) | UCMS-induced immobility in the TST (mice [4]) | sucrose preference (% of sugar of total consumption) (mice [4]) | UCMS-induced body weight loss (mice [4]; [6]) | UCMS-induced degradation of the coat state (mice [4]; [6]) | duration of administration after which active in the SDS test (mice [3]) [days] | tail suspension-induced Elk1 phosphorylation in mPFCx (Elk1) | tail suspension-induced ERK phosphorylation (ERK) | stress induced elevation of plasma corticosterone (plasma corticosterone; immediately after 30-min restraint stress, injected 1 h30 before) | basal plasma level corticosterone (plasma corticosterone; non-stressed mice) | duration of administration after which antidepressant action in the SDS test (mice [5]) [days]
CNCCCN1c2ccccc2CCc2ccccc21 [desipramine, reference compound] | of similar magnitude of that of fluoxetine and desipramine | antidepressant-like effects similar to the classical antidepressant desipramine | did not have any effect |  |  |  |  |  |  |  |  |  | 
CNCCC(Oc1ccc(C(F)(F)F)cc1)c1ccccc1 (stereo not shown) [fluoxetine, reference compound] | of similar magnitude of that of fluoxetine and desipramine |  |  | similarly to the reference antidepressant fluoxetine | similarly to the reference antidepressant fluoxetine |  |  |  |  |  |  |  | 
GRKKRRQRRRPPSPAKLSFQFPSSGSAQVHI (selective peptide inhibitor of Elk-1 activation - TAT-DEF-Elk-1) [TAT-DEF-Elk-1 peptide] | reduced immobility in the TST similar to classical antidepressants | induced antidepressant-like effects in the FST | fully reverses this behaviour | reduced UPMS-induced immobility in the TST | fully restored UCMS-blunted sucrose preference | reversed the progressive weight loss induced by UCMS | diminished the degradation of the coat state | 15 | reduces selectively tail suspension-induced Elk1 phosphorylation | does not inhibit tail suspension-induced ERK phosphorylation | markedly reduces stress induced-elevations in plasma level corticosterone | does not affect basal plasma level corticosterone | 
CN(C)CCCN1c2ccccc2CCc2ccccc21 [imipramine] |  |  |  |  |  |  |  |  |  |  |  |  | 39
